The record followed here is patent US20070134221A1, “Stabilizing peptides” (priority 2003, published 2007).

Read-outs that look alike come from different tables or passages of the source.

Data set [1] in a line: Circular dichroism spectroscopy. In kind it is physicochemical. To be noted: 10 μM peptide, 50 mM Tris-HCl (pH 8.0), 10 mM NaCl, 4° C. Here is the method:
CD measurements of the peptides were carried out on an Aviv 62 DS circular dichroism spectrometer (Aviv Biomedical, Lakewood, N.J.). Peptides were dissolved in 50 mM Tris-HCl (pH 8.0) and 10 mM NaCl with a total peptide concentration of 10 μM. The wavelength dependence of molar ellipticity, [θ], was monitored at 4° C. as the average of five scans, using a five-second integration time at 1.0 nm wavelength increments. Spectra were baseline-corrected against the cuvette with buffer alone. […] Thermal stability was determined by monitoring the change in CD signal at 222 nm as a function of temperature, and thermal melts were performed in two-degree intervals with a two-minute equilibration at the desired temperature, and an integration time of 30 s. Reversibility was checked by repeated scans.

A further data set deals with HIV-1 BZ162. Format: cell-based. Particulars: human PBMC, 5-7 days, p24 ELISA; second line of the isolate = second separate assay; read-out: Antiviral activity IC50, HIV-1 BZ162. The protocol: (§1) PBMC Infectivity Assay. PBMC were isolated from healthy blood donors by Ficoll-Hypaque centrifugation and then stimulated for 2-3 days with phytohemagglutinin (5 μg/ml) and interleukin-2 (100 U/ml). The inhibition assay was performed essentially as described previously (Trkola, A., T. Ketas, V. N. KewalRamani, F. Endorf, J. M. Binley, H. Katinger, J. Robinson, D. R. Littman, and J. P. Moore. 1998. Neutralization sensitivity of human immunodeficiency virus type 1 primary isolates to antibodies and CD4-based reagents is independent of co-receptor usage. J. Virol. 72:1876-1885; Trkola, A., W. A. Paxton, S. P. Monard, J. A. Hoxie, M. A. Siani, D. A. Thompson, L. Wu, C. R. Mackay, R. Horuk, and J. P. Moore. 1998. Genetic subtype-independent inhibition of human immunodeficiency virus type 1 replication by CC and CXC chemokines. J. Virol. 72:396-404).
(§2) Briefly, the virus inoculum was adjusted to 400-1,000 TCID50/ml in assay medium (RPMI 1640, 10% FCS, 100 U of interleukin-2 per ml, glutamine, and peptides), and 50 μl aliquots were incubated with serial dilutions of the peptide inhibitors (50 μl) for 1 h at 37° C. […] RBMC (4×10^5 in 100 μl of medium) were then added. The final concentration of virus in the cultures was 20-50 TCID50/well, corresponding to 100-250 TCID50/ml. Peptides, virus, and cells were then incubated for 5-7 days at 37° C., and the extent of viral replication was determined by p24 antigen ELISA of the culture supernatants. The viral inocula in 50% tissue culture infectious doses (TCID50) were 400-1000/ml.

The next data set deals with HIV-1 CM.235. In kind it is cell-based. To be noted: human PBMC, 5-7 days, p24 ELISA; second line of the isolate = second separate assay; read-out: Antiviral activity IC50, HIV-1 CM.235. Here is the method: as §1, §2
In another data set the test system is HIV-1 UG270. Format: cell-based. The protocol: as §1, §2
Another data set deals with HIV-1 JFRL. In kind it is cell-based. The protocol: as §1, §2
A further data set relates to HIV-1 NL4-3. In kind it is cell-based. The protocol:
as §1, §2

The subject of another data set is HIV-1 94ZW103. In kind it is cell-based. Here is the method: as §1, §2
The test system of another data set is HIV-1 Case C 7/86. Format: cell-based. Particulars: human PBMC, 5-7 days, p24 ELISA; second line of the isolate = second separate assay; read-out: Antiviral activity IC50, HIV-1 Case C 7/86. The protocol: as §1, §2
The subject of the next data set is HIV-1 DJ258. Format: cell-based. Particulars: human PBMC, 5-7 days, p24 ELISA; second line of the isolate = second separate assay; read-out: Antiviral activity IC50, HIV-1 DJ258. Here is the method:
as §1, §2

The mark [2] stands for this setting: human PBMC, 5-7 days, p24 ELISA, second line of the isolate = second separate assay, read-out: Antiviral activity IC50, HIV-1 UG270.
The mark [3] stands for this setting: human PBMC, 5-7 days, p24 ELISA, second line of the isolate = second separate assay, read-out: Antiviral activity IC50, HIV-1 JFRL.
Setting [4] is: human PBMC, 5-7 days, p24 ELISA, second line of the isolate = second separate assay, read-out: Antiviral activity IC50, HIV-1 NL4-3.
The mark [5] stands for this setting: human PBMC, 5-7 days, p24 ELISA, second line of the isolate = second separate assay, read-out: Antiviral activity IC50, HIV-1 94ZW103.

Turning to `CC[C@H](C)[C@H](NC(=O)[C@H](CCCCN)NC(=O)[C@@H](NC(=O)[C@H](CC(N)=O)NC(=O)[C@H](Cc1ccccc1)NC(=O)[C@H](Cc1c[nH]c2ccccc12)NC(=O)[C@H](CC(N)=O)NC(=O)[C@H](Cc1c[nH]c2ccccc12)NC(=O)[C@H](CC(C)C)NC(=O)[C@H](CO)NC(=O)[C@H](C)NC(=O)[C@H](Cc1c[nH]c2ccccc12)NC(=O)[C@H](CCCCN)NC(=O)[C@H](CC(=O)O)NC(=O)[C@H](CC(C)C)NC(=O)[C@H](CCC(=O)O)NC(=O)[C@H](CC(C)C)NC(=O)[C@H](CC(C)C)NC(=O)[C@H](CCC(=O)O)NC(=O)[C@H](CCC(N)=O)NC(=O)[C@H](CCC(=O)O)NC(=O)[C@H](CC(N)=O)NC(=O)[C@H](CCCCN)NC(=O)[C@H](CCC(=O)O)NC(=O)[C@H](CCC(N)=O)NC(=O)[C@H](CC(C)C)NC(=O)[C@H](CC(N)=O)NC(=O)[C@H](CCC(N)=O)NC(=O)[C@H](CO)NC(=O)[C@H](CCC(=O)O)NC(=O)[C@H](CCC(=O)O)NC(=O)[C@@H](NC(=O)[C@H](CC(C)C)NC(=O)[C@H](CO)NC(=O)[C@H](Cc1c[nH]cn1)NC(=O)[C@@H](NC(=O)[C@H](CC(C)C)NC(=O)[C@H](CO)NC(=O)[C@@H](NC(=O)[C@H](Cc1ccc(O)cc1)NC(=O)[C@H](CC(N)=O)NC(=O)[C@H](CC(N)=O)NC(=O)[C@@H](NC(=O)[C@H](CCC(=O)O)NC(=O)[C@H](CCCNC(=N)N)NC(=O)[C@H](CC(=O)O)NC(=O)[C@H](Cc1c[nH]c2ccccc12)NC(=O)[C@H](CCC(=O)O)NC(=O)[C@H](CCSC)NC(=O)[C@H](Cc1c[nH]c2ccccc12)NC(=O)[C@@H](NC(=O)[C@@H](NC(=O)[C@H](Cc1c[nH]cn1)NC(=O)[C@@H](N)CC(N)=O)[C@@H](C)O)[C@@H](C)O)[C@@H](C)CC)[C@@H](C)O)[C@@H](C)CC)[C@@H](C)CC)[C@@H](C)CC)C(=O)N[C@@H](CCCCN)C(=O)O` [Peptide C52F, NHTTWMEWDREINNYTSLIHSLIEESQNLQEKNEQELLELDKWASLWNWFNI-KIK], in data set [1], the “Structure in solution by circular dichroism” value is reported as “forms an α-helical structure in solution”. Also, the IC50 in the data set on HIV-1 BZ162 is 2 nM; in the data set on HIV-1 CM.235, 11 nM; in the data set with HIV-1 UG270 (setting [2]), 68 nM; in the data set on HIV-1 JFRL (setting [3]) it was 5 nM; with HIV-1 NL4-3 (setting [4]), 23 nM; in the data set on HIV-1 94ZW103 (setting [5]), 4 nM. Moreover, the figures for the IC50 in the data set on HIV-1 Case C 7/86 and in the data set on HIV-1 DJ258 were 49 nM and 9 nM, respectively.
In the case of `CC[C@H](C)[C@H](NC(=O)[C@H](CCCCN)NC(=O)[C@@H](NC(=O)[C@H](CC(N)=O)NC(=O)[C@H](Cc1ccccc1)NC(=O)[C@H](Cc1c[nH]c2ccccc12)NC(=O)[C@H](CC(N)=O)NC(=O)[C@H](Cc1c[nH]c2ccccc12)NC(=O)[C@H](CC(C)C)NC(=O)[C@H](CO)NC(=O)[C@H](C)NC(=O)[C@H](Cc1c[nH]c2ccccc12)NC(=O)[C@H](CCCCN)NC(=O)[C@H](CC(=O)O)NC(=O)[C@H](CC(C)C)NC(=O)[C@H](CCC(=O)O)NC(=O)[C@H](Cc1ccccc1)NC(=O)[C@H](CC(C)C)NC(=O)[C@H](CCC(=O)O)NC(=O)[C@H](CCC(N)=O)NC(=O)[C@H](CCC(=O)O)NC(=O)[C@H](C)NC(=O)[C@H](CCCCN)NC(=O)[C@H](CCC(=O)O)NC(=O)[C@H](CCC(N)=O)NC(=O)[C@H](CC(C)C)NC(=O)[C@H](CC(N)=O)NC(=O)[C@H](CCC(N)=O)NC(=O)[C@H](CO)NC(=O)[C@H](CCC(=O)O)NC(=O)[C@H](CCC(=O)O)NC(=O)[C@H](Cc1ccccc1)NC(=O)[C@H](CC(C)C)NC(=O)[C@H](CO)NC(=O)[C@H](Cc1c[nH]cn1)NC(=O)[C@@H](NC(=O)[C@H](CC(C)C)NC(=O)[C@H](CO)NC(=O)[C@@H](NC(=O)[C@H](Cc1ccc(O)cc1)NC(=O)[C@H](CC(N)=O)NC(=O)[C@H](CC(N)=O)NC(=O)[C@@H](NC(=O)[C@H](CCC(=O)O)NC(=O)[C@H](CCCNC(=N)N)NC(=O)[C@H](CC(=O)O)NC(=O)[C@H](Cc1c[nH]c2ccccc12)NC(=O)[C@H](CCC(=O)O)NC(=O)[C@H](CCSC)NC(=O)[C@H](Cc1c[nH]c2ccccc12)NC(=O)[C@@H](NC(=O)[C@@H](NC(=O)[C@H](Cc1c[nH]cn1)NC(=O)[C@@H](N)CC(N)=O)[C@@H](C)O)[C@@H](C)O)[C@@H](C)CC)[C@@H](C)O)[C@@H](C)CC)[C@@H](C)CC)C(=O)N[C@@H](CCCCN)C(=O)O` [Peptide C52L, NHTTWMEWDREINNYTSLIHSLFEESQNLQEKAEQELFELDKWASLWNWFNI-KIK], the “Structure in solution by circular dichroism” value in data set [1] was “forms an α-helical structure in solution”. Also, the IC50 came out at 3 nM in the data set with HIV-1 BZ162; 12 nM with HIV-1 CM.235; 61 nM with HIV-1 UG270 (setting [2]); 6 nM with HIV-1 JFRL (setting [3]); 20 nM in the data set on HIV-1 NL4-3 (setting [4]); 3 nM in the data set on HIV-1 94ZW103 (setting [5]). Besides, the figures for the IC50 with HIV-1 Case C 7/86 and with HIV-1 DJ258 were 17 nM and 11 nM, respectively.
For Enfuvirtide, the IC50 in the data set with HIV-1 UG270 (UG270) amounted to 139 nM; in the data set with HIV-1 JFRL (JFRL) it was 10 nM; in the data set with HIV-1 NL4-3 (NL4-3) it was 44 nM; in the data set with HIV-1 94ZW103 (94ZW103) it was 18 nM.
